Laboratory results from patent US7135466B2 (Kirin Beer Kabushiki Kaisha, priority 1999, dated 2006).
pIC50: −log10 of the molar value. Where two headings read alike, the source gives them in different places.

How the values were obtained:
PDGF-Ra = target: T1, PDGF-Ra (Homo sapiens, UniProt P16234); assay: Inhibitory activity against PDGF-Ra phosphorylation by PDGF-AA stimulation using G292; assay type: cell-based; details: for pIC50: > means inhibition at indicated concentration not more than 50%, < and << not less than 50%, read-out: PDGF (E) IC50
T1 construct: host or cells: G-292 human osteosarcoma cells
Outline: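 Cells seeded in low-serum medium are exposed to test compound for one hour, then PDGF-AA (50 ng/ml) triggers receptor phosphorylation for 5 min at 37 °C. Phospho-PDGF-Ra in solubilized cells is quantified by anti-phosphotyrosine capture ELISA at 450 nm.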

c-kit = target: T2, c-kit (Homo sapiens, UniProt P10721); assay: Inhibitory activity against c-kit autophosphorylation (MO7e cells, h-SCF); assay type: cell-based; details: for pIC50: MO7e cells, read-out: c-kit IC50; for inhibition at 1 µM: Mo7e, at 1000 nM
T2 construct: MO7e (human megakaryocytic leukemia cell line) which had been arrested for 20 hr; endogenous in cells; host or cells: MO7e human megakaryocytic leukemia cell line
Outline: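 Phospho-c-kit ELISA: plate-bound PY-20 anti-phosphotyrosine captures lysate, anti-c-kit plus peroxidase-labelled secondary antibody detect, read at 450 nm. Lysates come from 20 hr-arrested MO7e cells given compound for 1 hr before a 5 min 50 ng/ml h-SCF stimulus.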

[1] = figure within parentheses in −( ) or >1000( )

T1 sequence (P16234 24-1089): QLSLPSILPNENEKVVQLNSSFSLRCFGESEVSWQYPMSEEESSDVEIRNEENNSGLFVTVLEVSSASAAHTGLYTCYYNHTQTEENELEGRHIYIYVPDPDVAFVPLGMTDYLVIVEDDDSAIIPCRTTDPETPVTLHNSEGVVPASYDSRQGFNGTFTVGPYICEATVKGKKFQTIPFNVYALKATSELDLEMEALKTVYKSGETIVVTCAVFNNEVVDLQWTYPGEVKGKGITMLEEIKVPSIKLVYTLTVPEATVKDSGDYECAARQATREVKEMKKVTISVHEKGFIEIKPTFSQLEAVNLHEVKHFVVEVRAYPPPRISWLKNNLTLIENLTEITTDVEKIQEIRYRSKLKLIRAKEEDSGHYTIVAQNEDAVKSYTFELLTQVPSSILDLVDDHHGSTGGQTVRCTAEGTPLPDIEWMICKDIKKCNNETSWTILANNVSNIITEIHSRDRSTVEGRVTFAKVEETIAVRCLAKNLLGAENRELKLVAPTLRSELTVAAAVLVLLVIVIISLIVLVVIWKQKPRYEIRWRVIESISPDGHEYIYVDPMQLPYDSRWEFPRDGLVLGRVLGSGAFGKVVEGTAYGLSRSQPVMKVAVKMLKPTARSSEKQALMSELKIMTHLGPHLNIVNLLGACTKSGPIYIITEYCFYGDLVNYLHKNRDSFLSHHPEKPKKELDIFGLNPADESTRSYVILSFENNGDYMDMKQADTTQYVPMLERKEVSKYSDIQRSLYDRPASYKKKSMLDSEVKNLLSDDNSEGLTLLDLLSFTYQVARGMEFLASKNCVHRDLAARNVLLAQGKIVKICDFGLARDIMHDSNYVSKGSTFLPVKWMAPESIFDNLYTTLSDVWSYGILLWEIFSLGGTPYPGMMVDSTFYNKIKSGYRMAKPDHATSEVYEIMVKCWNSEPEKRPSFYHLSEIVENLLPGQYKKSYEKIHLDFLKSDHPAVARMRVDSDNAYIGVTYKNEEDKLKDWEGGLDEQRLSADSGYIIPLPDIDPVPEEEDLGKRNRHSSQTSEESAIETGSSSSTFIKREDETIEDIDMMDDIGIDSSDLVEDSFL
T2 sequence (P10721 26-976): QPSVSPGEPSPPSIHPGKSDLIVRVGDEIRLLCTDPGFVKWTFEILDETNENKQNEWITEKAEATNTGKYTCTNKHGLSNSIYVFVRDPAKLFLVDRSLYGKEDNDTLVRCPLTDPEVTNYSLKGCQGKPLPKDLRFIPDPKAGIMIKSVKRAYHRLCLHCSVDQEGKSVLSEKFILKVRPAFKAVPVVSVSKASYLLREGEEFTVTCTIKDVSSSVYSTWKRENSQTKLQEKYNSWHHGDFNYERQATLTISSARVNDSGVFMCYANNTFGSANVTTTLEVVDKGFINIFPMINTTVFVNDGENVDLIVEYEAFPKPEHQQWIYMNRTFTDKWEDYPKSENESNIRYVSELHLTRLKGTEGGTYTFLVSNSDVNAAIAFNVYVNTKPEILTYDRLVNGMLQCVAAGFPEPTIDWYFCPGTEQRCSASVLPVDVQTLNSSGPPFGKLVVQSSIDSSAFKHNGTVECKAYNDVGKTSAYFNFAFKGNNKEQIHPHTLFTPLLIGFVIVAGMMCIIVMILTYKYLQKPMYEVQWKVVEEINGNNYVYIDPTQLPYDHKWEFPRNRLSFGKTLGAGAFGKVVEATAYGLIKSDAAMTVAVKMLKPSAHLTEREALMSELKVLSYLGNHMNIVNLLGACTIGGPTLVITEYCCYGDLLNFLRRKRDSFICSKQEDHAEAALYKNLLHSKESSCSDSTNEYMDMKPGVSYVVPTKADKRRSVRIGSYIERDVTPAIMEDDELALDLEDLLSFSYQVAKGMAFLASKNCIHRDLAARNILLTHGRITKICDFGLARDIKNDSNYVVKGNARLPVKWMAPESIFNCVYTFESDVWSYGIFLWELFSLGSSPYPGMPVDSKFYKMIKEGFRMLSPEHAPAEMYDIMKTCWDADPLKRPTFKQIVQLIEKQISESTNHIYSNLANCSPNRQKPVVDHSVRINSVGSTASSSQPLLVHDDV

| Compound | pIC50 (PDGF-Ra) | pIC50 (c-kit; 50 ng/ml h-SCF) | pIC50 (PDGF-Ra; Pharmacological Test Example 1) | pIC50 (c-kit; h-SCF 50 ng/ml) | also measured |
| --- | --- | --- | --- | --- | --- |
| COc1cc2nccc(Oc3ccc(NC(=S)NC(=O)COc4ccccc4)cc3Cl)c2cc1OC [Example 738, N-{3-Chloro-4-[(6,7-dimethoxy-4-quinolyl)oxy]phenyl}-N′-(2-phenoxyacetyl)thiourea] | 7.96 | 6.57 | – | – | – |
| COc1cc2ncnc(Oc3ccc(NC(=O)OCCCOc4ccc(Cl)cc4)cc3)c2cc1OC [Example 30, 3-(4-Chlorophenoxy)propyl N-{4-[(6,7-dimethoxy-4-quinazolinyl)oxy]phenyl}carbamate] | – | – | > 8.00 | > 7.52 | – |
| CCCc1ccc(C(=O)NC(=S)Nc2ccc(Oc3ccnc4cc(OC)c(OC)cc34)c(F)c2)cc1 [Example 998, N-{4-[(6,7-Dimethoxy-4-quinolyl)oxy]-3-fluorophenyl}-N′-(4-propylbenzoyl)thiourea] | 7.60 | – | – | – | pIC50 (c-kit; h-SCF stimulation): 6.23 |
| COc1cc2nccc(Oc3ccc(NC(=O)NC4CCN(Cc5ccccc5)C4)cc3)c2cc1OC (stereo not shown) [Example 560, N-(1-Benzyltetrahydro-1H-3-pyrrolyl)-N′-{4-[(6,7-dimethoxy-4-quinolyl)oxy]phenyl}urea] | 7.92 | 6.97 | – | – | – |
| COc1cc2ncnc(Oc3ccc(NC(=O)OCC4CCCCC4)c(Cl)c3)c2cc1OC [Example 341, Cyclohexylmethyl N-{2-chloro-4-[(6,7-dimethoxy-4-quinazolinyl)oxy]phenyl}carbamate] | – | – | 7.49 | 6.28 | – |
| COc1cc2nccc(Oc3cc(C)c(NC(=O)OC(C)C)cc3C)c2cc1OC [Example 347, Isopropyl N-{4-[(6,7-dimethoxy-4-quinolyl)oxy]-2,5-dimethylphenyl}carbamate] | – | – | 7.11 | 6.64 | – |
| COc1cc2nccc(Oc3ccc(NC(=O)OCCOc4cccc(F)c4)cc3)c2cc1OC [Example 207, 2-(3-Fluorophenoxy)ethyl N-{4-[(6,7-dimethoxy-4-quinolyl)oxy]phenyl}carbamate] | – | – | 7.51 | 7.26 | – |
| COc1cc2nccc(Oc3cc(C)c(NC(=O)OCCCCCCN(C)C)cc3C)c2cc1OC [Example 310, 6-(Dimethylamino)hexyl N-{4-[(6,7-dimethoxy-4-quinolyl)oxy]-2,5-dimethylphenyl}carbamate] | – | – | 7.17 | 6.22 | – |
| COc1cc2ncnc(Oc3ccc(NC(=O)OCc4ccccc4Cl)cc3)c2cc1OC [Example 317, 2-Chlorobenzyl N-{4-[(6,7-dimethoxy-4-quinazolinyl)oxy]phenyl}carbamate] | – | – | > 8.00 | 6.87 | – |
| COc1cc2nccc(Oc3ccc(NC(=O)NCCN4CCCCC4)cc3)c2cc1OC [Example 673, N-{4-[(6,7-Dimethoxy-4-quinolyl)oxy]phenyl}-N′-(2-piperidinoethyl)urea] | 7.82 | 6.37 | – | – | – |
| COc1cc2ncnc(Oc3ccc(NC(=S)NCCCN4CCCCC4C)cc3)c2cc1OC (stereo not shown) [Example 534, N-{4-[(6,7-Dimethoxy-4-quinazolinyl)oxy]phenyl}-N′-{3-[1-(2-methylpiperidinyl)]propyl}thiourea] | 7.29 | – | – | – | inhibition at 1 µM (c-kit; [1]): 35% |
| COc1ccc(OC)c(COC(=O)Nc2ccc(Oc3ncnc4cc(OC)c(OC)cc34)cc2)c1 [Example 70, 2,5-Dimethoxybenzyl N-{4-[(6,7-dimethoxy-4-quinazolinyl)oxy]phenyl}carbamate] | – | – | > 8.00 | 6.35 | – |
| COc1cc2nccc(Oc3ccc(OCCCOc4ccccc4OC)cc3)c2cc1OC [Example 795, 6,7-Dimethoxy-4-{4-[3-(2-methoxy-phenoxy)propoxy]phenoxy}quinoline] | 8.30 | 6.47 | – | – | – |
| COc1cc2nccc(Oc3ccc(NC(=S)NC(=O)CCCCl)cc3Cl)c2cc1OC [Example 1198, N-(4-Chlorobutanoyl)-N′-{3-chloro-4-[(6,7-dimethoxy-4-quinolyl)oxy]phenyl}thiourea] | > 8.00 | – | – | – | pIC50 (c-kit; h-SCF stimulation): 6.61 |
| COc1cc2nccc(Oc3ccc(NC(=S)NCCCN4CCCCC4C)c(C)c3C)c2cc1OC (stereo not shown) [Example 549, N-{4-[(6,7-Dimethoxy-4-quinolyl)oxy]-2,3-dimethylphenyl}-N′-[3-(2-methylpiperidinyl)propyl]thiourea] | 7.21 | 6.17 | – | – | – |
| COc1cc2ncnc(Oc3ccc(NC(=O)OCc4ccccc4Cl)c(Cl)c3)c2cc1OC [Example 318, 2-Chlorobenzyl N-{2-chloro-4-[(6,7-dimethoxy-4-quinazolinyl)oxy]phenyl}carbamate] | – | – | 8.00 | 6.38 | – |
| COc1cc2ncnc(Oc3ccc(NC(=S)NC(=O)C4CCCC4)cc3)c2cc1OC [Example 1183, N-Cyclopentylcarbonyl-N′-{4-[(6,7-dimethoxy-4-quinazolinyl)oxy]phenyl}thiourea] | > 8.00 | – | – | – | pIC50 (c-kit; h-SCF stimulation): 6.37 |

| Compound | pIC50 (PDGF-Ra) | pIC50 (c-kit; 50 ng/ml h-SCF) | pIC50 (PDGF-Ra; Pharmacological Test Example 1) | pIC50 (c-kit; h-SCF 50 ng/ml) | also measured |
| --- | --- | --- | --- | --- | --- |
| COc1cc2nccc(Oc3ccc(NCCCOc4ccccc4Cl)cc3)c2cc1OC [Example 891, N-[3-(2-Chlorophenoxy)propyl]-N-{4-[(6,7-dimethoxy-4-quinolyl)oxy]phenyl}amine] | 8.15 | – | – | – | pIC50 (c-kit; h-SCF stimulation): 6.55 |
| N-{4-[(6,7-Dimethoxy-4-quinolyl)oxy]-2,3-dimethylphenyl}-N′-[3-(1-piperidinyl)propyl]thiourea [Example 558] | 7.14 | 6.14 | – | – | – |
| CCCCOC(=O)Nc1ccc(Oc2ccnc3cc(OC)c(OC)cc23)cc1 [Example 321, Butyl N-{4-[(6,7-dimethoxy-4-quinolyl)oxy]phenyl}carbamate] | – | – | > 8.00 | 7.43 | – |
| CCN(CC)CCCNC(=S)Nc1ccc(Oc2ccnc3cc(OC)c(OC)cc23)c(C)c1C [Example 546, N-{4-[(6,7-Dimethoxy-4-quinolyl)oxy]-2,3-dimethylphenyl}-N′-(3-diethylaminopropyl)thiourea] | 7.27 | – | – | – | inhibition at 1 µM (c-kit; [1]): 44% |
| COc1cc2ncnc(Oc3ccc(NC(=S)NC(=O)C4(c5ccccc5)CC4)cc3)c2cc1OC [Example 1195, N-{4-[(6,7-Dimethoxy-4-quinazolinyl)oxy]phenyl}-N′-[(1-phenylcyclopropyl)carbonyl]thiourea] | 7.68 | – | – | – | pIC50 (c-kit; h-SCF stimulation): 6.28 |
| COc1cc2ncnc(Oc3ccc(NC(=O)NC4CCN(CC5CCCCC5)C4)cc3)c2cc1OC (stereo not shown) [Example 586, N-[1-(Cyclohexylmethyl)tetrahydro-1H-3-pyrrolyl]-N′-{4-[(6,7-dimethoxy-4-quinazolinyl)oxy]phenyl}urea] | 7.20 | 6.13 | – | – | – |
| COc1ccc(CCC(=O)NC(=S)Nc2ccc(Oc3ncnc4cc(OC)c(OC)cc34)cc2)cc1OC [Example 713, N-[3-(3,4-Dimethoxyphenyl)propanoyl]-N′-{4-[(6,7-dimethoxy-4-quinazolinyl)oxy]phenyl}thiourea] | 7.17 | 7.05 | – | – | – |
| COc1cc2ncnc(Oc3ccc(OCCCn4ccc5ccccc54)cc3)c2cc1OC [Example 811, 4-{4-[3-(1H-1-Indolyl)propoxy]phenoxy}-6,7-dimethoxyquinazoline] | 7.77 | – | – | – | inhibition at 1 µM (c-kit; figure in parentheses in −( )): 20% |
| CCCCCCOC(=O)Nc1ccc(Oc2ccnc3cc(OC)c(OC)cc23)c(C)c1C [Example 261, Hexyl N-{4-[(6,7-Dimethoxy-4-quinolyl)oxy]-2,3-dimethylphenyl}carbamate] | – | – | 8.40 | 7.36 | – |
| COc1cc2ncnc(Oc3ccc(NC(=S)NC(=O)CCc4ccc(C)cc4)cc3)c2cc1OC [Example 722, N-{4-[(6,7-Dimethoxy-4-quinazolinyl)oxy]phenyl}-N′-[3-(4-methylphenyl)propanoyl]thiourea] | > 8.00 | 7.07 | – | – | – |
| CCN(CC)CCNC(=O)Nc1ccc(Oc2ccnc3cc(OC)c(OC)cc23)c(C)c1 [Example 648, N-[2-(Diethylamino)ethyl]-N′-{4-[(6,7-dimethoxy-4-quinolyl)oxy]-3-methylphenyl}urea] | 7.80 | 6.03 | – | – | – |
| COc1cc2ncnc(Oc3ccc(NC(=S)NCCN(C(C)C)C(C)C)cc3)c2cc1OC [Example 535, N-{4-[(6,7-Dimethoxy-4-quinazolinyl)oxy]phenyl}-N′-(2-diisopropylaminoethyl)thiourea] | 7.49 | – | – | – | inhibition at 1 µM (c-kit; [1]): 27% |
| COc1ccc(OCCCOC(=O)Nc2ccc(Oc3ccnc4cc(OC)c(OC)cc34)cc2)cc1 [Example 42, 3-(4-Methoxyphenoxy)propyl N-{4-[(6,7-dimethoxy-4-quinolyl)oxy]phenyl}carbamate] | – | – | > 8.00 | 7.14 | – |
| COc1cc2ncnc(Oc3ccc(NC(=S)NC(=O)Cc4ccc5ccccc5c4)cc3)c2cc1OC [Example 711, N-{4-[(6,7-Dimethoxy-4-quinazolinyl)oxy]phenyl}-N′-[2-(2-naphthyl)acetyl]thiourea] | < 7.00 | – | – | – | inhibition at 0.1 µM (PDGF-Ra; G292, figure within parentheses in >100( ), at 100 nM, read-out: PDGF (E) inhibition (%) at 100 nM): 34%; inhibition at 1 µM (c-kit; [1]): 17% |
| CCN(CC)CCNC(=O)Nc1ccc(Oc2ncnc3cc(OC)c(OC)cc23)cc1OC [Example 630, N-[2-(Diethylamino)ethyl]-N′-{4-[(6,7-dimethoxy-4-quinazolinyl)oxy]-2-methoxyphenyl}urea] | 7.44 | – | – | – | inhibition at 1 µM (c-kit; [1]): 23% |
| COc1cc2ncnc(Oc3ccc(NC(=S)NC(=O)CC4CCCCC4)cc3)c2cc1OC [Example 705, N-(2-Cyclohexylacetyl)-N′-{4-[(6,7-dimethoxy-4-quinazolinyl)oxy]phenyl}thiourea] | > 8.00 | 6.83 | – | – | – |
